Assay results reported in the supplement of paper PMC11061612.

How the values were obtained:
Assay in all cases: combination Emax (second highest fraction inhibited in the dose matrix, 72 h); higher = more inhibition; extreme values may be limits of the assay
BT-20 (Breast Carcinoma) = tested on: BT-20 (Breast Carcinoma)
Procedure, shortened: (§1)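 Bliss excess equals the observed combination effect minus the expected value EA + EB − EA·EB, where EA and EB are the effects of each agent alone. Combination Emax is the second-highest inhibition within the matrix. Inhibition was scaled from CellTiter-Glo 2.0 luminescence, with 0 set by vehicle wells and 1 by blank wells, after 72 hours of two-drug dosing of cells plated in 1536-well plates.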

A704 (Kidney Carcinoma) = tested on: A704 (Kidney Carcinoma)
Procedure, shortened: as §1

[1] = tested on: TGBC11TKB (Gastric Carcinoma)
Procedure, shortened: as §1

[2] = tested on: PF-382 (T-Lymphoblastic Leukemia)
Procedure, shortened: as §1

[3] = tested on: OCUB-M (Breast Carcinoma)
Procedure, shortened: as §1

[4] = tested on: HSC-2 (Oral Cavity Carcinoma)
Procedure, shortened: as §1

[5] = tested on: LOU-NH91 (Squamous Cell Lung Carcinoma)
Procedure, shortened: as §1

U-87-MG (Glioblastoma) = tested on: U-87-MG (Glioblastoma)
Procedure, shortened: as §1

[6] = tested on: KU-19-19 (Bladder Carcinoma)
Procedure, shortened: as §1

[7] = tested on: KINGS-1 (Low Grade Glioma)
Procedure, shortened: as §1

[8] = tested on: HC-1 (Other Blood Carcinomas)
Procedure, shortened: as §1

RPMI-7951 (Melanoma) = tested on: RPMI-7951 (Melanoma)
Procedure, shortened: as §1

NB7 (Neuroblastoma) = tested on: NB7 (Neuroblastoma)
Procedure, shortened: as §1

NH-12 (Neuroblastoma) = tested on: NH-12 (Neuroblastoma)
Procedure, shortened: as §1

[9] = tested on: NCI-H322M (Lung Adenocarcinoma)
Procedure, shortened: as §1

[10] = tested on: VMRC-LCD (Lung Adenocarcinoma)
Procedure, shortened: as §1

[11] = tested on: HuP-T3 (Pancreatic Carcinoma)
Procedure, shortened: as §1

GOTO (Neuroblastoma) = tested on: GOTO (Neuroblastoma)
Procedure, shortened: as §1

[12] = tested on: KLE (Endometrial Carcinoma)
Procedure, shortened: as §1

[13] = tested on: EBC-1 (Squamous Cell Lung Carcinoma)
Procedure, shortened: as §1

| SMILES | combination Emax (BT-20 (Breast Carcinoma)) | combination Emax (A704 (Kidney Carcinoma)) | combination Emax [1] | combination Emax [2] | combination Emax [3] | combination Emax [4] | combination Emax [5] | combination Emax (U-87-MG (Glioblastoma)) | combination Emax [6] | combination Emax [7] | combination Emax [8] | combination Emax (RPMI-7951 (Melanoma)) | combination Emax (NB7 (Neuroblastoma)) | combination Emax (NH-12 (Neuroblastoma)) | combination Emax [9] | combination Emax [10] | combination Emax [11] | combination Emax (GOTO (Neuroblastoma)) | combination Emax [12] | combination Emax [13] |
| --- | --- | --- | --- | --- | --- | --- | --- | --- | --- | --- | --- | --- | --- | --- | --- | --- | --- | --- | --- | --- |
| CS(=O)(=O)CCNCc1ccc(-c2ccc3ncnc(Nc4ccc(OCc5cccc(F)c5)c(Cl)c4)c3c2)o1 [Lapatinib] + C[C@@H](Oc1cc(-c2cnn(C3CCNCC3)c2)cnc1N)c1c(Cl)ccc(F)c1Cl [Crizotinib] (first compound max 10 µM, 7x7, partner max 10 µM) | 0.652 | 0.905 | 0.622 | 0.978 | 0.697 | 0.998 | 0.924 | 0.613 | 0.918 | 0.921 | 0.898 | 0.975 | 0.565 | 0.873 | 0.876 | 0.711 | 0.579 | 1 | 0.51 | 1 |
| COc1nnc2ccc(N3CCC(c4ccc(OCCN5CCN(C)C(=O)[C@H]5C)cc4)CC3)nn12 [AZD5153] + Cn1cnc2c(F)c(Nc3ccc(Br)cc3Cl)c(C(=O)NOCCO)cc21 [Selumetinib] (first compound max 1 µM, 7x7, partner max 10 µM) | 0.302 | 0.855 | 0.683 | 0.903 | 0.534 | 0.737 | 0.63 | 0.698 | 1 | 0.323 | 0.506 | 0.677 | 0.45 | 0.729 | 0.726 | 0.575 | 0.692 | 0.822 | 0.631 | 1 |
| C[C@@H](c1ccc2nccn2c1)n1nnc2ncc(-c3cnn(C)c3)nc21 [Savolitinib] + CC1(C)CCC(CN2CCN(c3ccc(C(=O)NS(=O)(=O)c4ccc(NCC5CCOCC5)c([N+](=O)[O-])c4)c(Oc4cnc5[nH]ccc5c4)c3)CC2)=C(c2ccc(Cl)cc2)C1 [Venetoclax] (first compound max 1 µM, 7x7, partner max 1 µM) | 0.0828 | 0.246 | 0.0823 | 0.134 | 0.116 | 0.186 | 0.135 | 0.252 | 0.132 | 0.334 | 0.173 | 0.13 | 0.108 | 0.406 | 0.0582 | 0.128 | 0.0903 | 0.266 | 0.0864 | 0.968 |
| CN(CCO)CC[C@H](CSc1ccccc1)Nc1ccc(S(=O)(=O)NC(=O)c2ccc(N3CCC([C@@H](O)c4ccccc4-c4ccc(Cl)cc4)CC3)cc2)cc1S(=O)(=O)C(F)(F)F [AZD4320] + C1CN(CCC1(C(=O)N[C@@H](CCO)C2=CC=C(C=C2)Cl)N)C3=NC=NC4=C3C=CN4 [Capivasertib] (first compound max 1 µM, 7x7, partner max 3 µM) | 0.84 | 0.392 | 0.182 | 0.98 | 1 | 0.362 | 0.494 | 0.311 | 0.174 | 0.49 | 0.616 | 0.54 | 0.0214 | 0.886 | 0.0734 | 0.0578 | 0.118 | 0.378 | 0.206 | 0.935 |
| CC(=O)c1c(C)c2cnc(Nc3ccc(N4CCNCC4)cn3)nc2n(C2CCCC2)c1=O [Palbociclib] + Cn1cnc2c(F)c(Nc3ccc(Br)cc3Cl)c(C(=O)NOCCO)cc21 [Selumetinib] (first compound max 10 µM, 7x7, partner max 10 µM) | 0.361 | 0.705 | 0.436 | 0.761 | 0.0542 | 0.391 | 0.213 | 0.326 | 0.935 | 0.232 | 0.59 | 0.546 | 0.331 | 0.592 | 0.665 | 0.123 | 0.385 | 0.819 | 0.31 | 0.944 |
